Measurements reported in the NIST ThermoML archive (doi:10.1016/j.jct.2019.03.023).
Several values for one entry are separate records, joined by “and”; a condition that tells them apart may be missing. Identical values can stand only once.

Assay: molar heat capacity at constant volume
Settings: Vacuum adiabatic calorimetry

CC(C)O [propan-2-ol]
Fluid (supercritical or subcritical phases)
Settings | molar heat capacity at constant volume
314.29 K, Mass density=329.2 kg/m3 | 177.46 J/K/mol
314.52 K, Mass density=329.2 kg/m3 | 182.81 J/K/mol
314.8 K, Mass density=329.2 kg/m3 | 184.67 J/K/mol
315.05 K, Mass density=329.2 kg/m3 | 181.49 J/K/mol
315.3 K, Mass density=329.2 kg/m3 | 177.88 J/K/mol
315.42 K, Mass density=329.2 kg/m3 | 176.26 J/K/mol
315.61 K, Mass density=329.2 kg/m3 | 174.88 J/K/mol
315.8 K, Mass density=329.2 kg/m3 | 178.6 J/K/mol
317.44 K, Mass density=697.69 kg/m3 | 170.85 J/K/mol
317.57 K, Mass density=697.69 kg/m3 | 172.41 J/K/mol
317.7 K, Mass density=697.69 kg/m3 | 172.71 J/K/mol
317.95 K, Mass density=697.69 kg/m3 | 168.15 J/K/mol
318.07 K, Mass density=697.69 kg/m3 | 168.15 J/K/mol
318.2 K, Mass density=697.69 kg/m3 | 171.69 J/K/mol
318.32 K, Mass density=697.69 kg/m3 | 171.33 J/K/mol
318.45 K, Mass density=697.69 kg/m3 | 173.98 J/K/mol
318.57 K, Mass density=697.69 kg/m3 | 170.25 J/K/mol
318.7 K, Mass density=697.69 kg/m3 | 175.24 J/K/mol
331.87 K, Mass density=697.69 kg/m3 | 192 J/K/mol
332.06 K, Mass density=697.69 kg/m3 | 191.34 J/K/mol
332.12 K, Mass density=697.69 kg/m3 | 189.48 J/K/mol
332.24 K, Mass density=697.69 kg/m3 | 188.82 J/K/mol
332.36 K, Mass density=697.69 kg/m3 | 187.74 J/K/mol
332.48 K, Mass density=697.69 kg/m3 | 189.96 J/K/mol
332.6 K, Mass density=697.69 kg/m3 | 190.26 J/K/mol
332.72 K, Mass density=697.69 kg/m3 | 187.74 J/K/mol
332.85 K, Mass density=697.69 kg/m3 | 192.36 J/K/mol
333.03 K, Mass density=697.69 kg/m3 | 188.7 J/K/mol
340.8 K, Mass density=697.69 kg/m3 | 195.19 J/K/mol
340.92 K, Mass density=697.69 kg/m3 | 192.6 J/K/mol
341.04 K, Mass density=697.69 kg/m3 | 196.99 J/K/mol
341.16 K, Mass density=697.69 kg/m3 | 193.33 J/K/mol
341.28 K, Mass density=697.69 kg/m3 | 197.83 J/K/mol
341.4 K, Mass density=697.69 kg/m3 | 196.15 J/K/mol
341.52 K, Mass density=697.69 kg/m3 | 194.89 J/K/mol
341.64 K, Mass density=697.69 kg/m3 | 195.13 J/K/mol
341.76 K, Mass density=697.69 kg/m3 | 196.21 J/K/mol
341.91 K, Mass density=329.2 kg/m3 | 203.12 J/K/mol
342.08 K, Mass density=329.2 kg/m3 | 202.22 J/K/mol
342.19 K, Mass density=329.2 kg/m3 | 203.54 J/K/mol
342.32 K, Mass density=329.2 kg/m3 | 207.27 J/K/mol
342.49 K, Mass density=329.2 kg/m3 | 201.32 J/K/mol
342.67 K, Mass density=329.2 kg/m3 | 203.72 J/K/mol
342.79 K, Mass density=329.2 kg/m3 | 202.76 J/K/mol
342.91 K, Mass density=329.2 kg/m3 | 201.62 J/K/mol
343.03 K, Mass density=329.2 kg/m3 | 204.08 J/K/mol
355.67 K, Mass density=697.69 kg/m3 | 207.33 J/K/mol
355.78 K, Mass density=697.69 kg/m3 | 211.29 J/K/mol
355.9 K, Mass density=697.69 kg/m3 | 211.9 J/K/mol
356.02 K, Mass density=697.69 kg/m3 | 209.49 J/K/mol
356.13 K, Mass density=697.69 kg/m3 | 211.11 J/K/mol
356.25 K, Mass density=697.69 kg/m3 | 212.68 J/K/mol
356.37 K, Mass density=697.69 kg/m3 | 211.77 J/K/mol
356.48 K, Mass density=697.69 kg/m3 | 211.96 J/K/mol
369.05 K, Mass density=329.2 kg/m3 | 225.9 J/K/mol
369.16 K, Mass density=329.2 kg/m3 | 220.01 J/K/mol
369.28 K, Mass density=329.2 kg/m3 | 231.31 J/K/mol
369.39 K, Mass density=329.2 kg/m3 | 222.83 J/K/mol
369.5 K, Mass density=329.2 kg/m3 | 225.96 J/K/mol
369.67 K, Mass density=329.2 kg/m3 | 223.55 J/K/mol
369.84 K, Mass density=329.2 kg/m3 | 221.75 J/K/mol
369.96 K, Mass density=329.2 kg/m3 | 221.03 J/K/mol
370.07 K, Mass density=329.2 kg/m3 | 219.47 J/K/mol
370.24 K, Mass density=697.69 kg/m3 | 222.11 J/K/mol
370.36 K, Mass density=697.69 kg/m3 | 222.41 J/K/mol
370.47 K, Mass density=697.69 kg/m3 | 220.43 J/K/mol
370.58 K, Mass density=697.69 kg/m3 | 219.77 J/K/mol
370.7 K, Mass density=697.69 kg/m3 | 222.05 J/K/mol
370.81 K, Mass density=697.69 kg/m3 | 222.29 J/K/mol
370.92 K, Mass density=697.69 kg/m3 | 220.61 J/K/mol
371.04 K, Mass density=697.69 kg/m3 | 221.57 J/K/mol
378.45 K, Mass density=697.69 kg/m3 | 221.99 J/K/mol
378.57 K, Mass density=697.69 kg/m3 | 220.67 J/K/mol
378.68 K, Mass density=697.69 kg/m3 | 223.19 J/K/mol
378.79 K, Mass density=697.69 kg/m3 | 223.37 J/K/mol
378.9 K, Mass density=697.69 kg/m3 | 220.97 J/K/mol
379.01 K, Mass density=697.69 kg/m3 | 222.41 J/K/mol
379.24 K, Mass density=697.69 kg/m3 | 222.71 J/K/mol
379.35 K, Mass density=697.69 kg/m3 | 221.33 J/K/mol
379.46 K, Mass density=697.69 kg/m3 | 221.99 J/K/mol
379.57 K, Mass density=697.69 kg/m3 | 220.55 J/K/mol
379.68 K, Mass density=697.69 kg/m3 | 222.53 J/K/mol
379.79 K, Mass density=697.69 kg/m3 | 221.81 J/K/mol
379.9 K, Mass density=697.69 kg/m3 | 222.53 J/K/mol
380.02 K, Mass density=697.69 kg/m3 | 224.03 J/K/mol
380.13 K, Mass density=697.69 kg/m3 | 223.07 J/K/mol
380.24 K, Mass density=697.69 kg/m3 | 222.05 J/K/mol
380.35 K, Mass density=697.69 kg/m3 | 223.97 J/K/mol and 182.81 J/K/mol
380.42 K, Mass density=697.69 kg/m3 | 185.51 J/K/mol
380.56 K, Mass density=697.69 kg/m3 | 185.69 J/K/mol
380.68 K, Mass density=697.69 kg/m3 | 187.44 J/K/mol

Settings | molar heat capacity at constant volume [J/K/mol]
380.35 K, Liquid | 182.81
